Results published in ChEMBL document CHEMBL6153118, “Structure Optimization of Natural Product Catalpol to Obtain Novel and Potent Analogs against Heart Failure” (J Med Chem, 2025).
Activity calls are given as the source filed them. The rule behind the calls is not given here.

Experiments:
[1] = Metabolic stability in mouse liver microsomes assessed as intrinsic clearance measured for 5 to 60 mins in presence of NADPH by LC-MS/MS analysis; type: ADME, Microsome; details: time 5-60 min, read-out: CLH
H9c2 [2] = experiment: Inhibition of apoptosis in ISO-treated rat H9c2 cells assessed as decrease in Bax level by Western blot analysis; type: functional, cell-based; details: dose 5-50 µM
Mus musculus [3] = experiment: Inhibition of cardiomyocyte hypertrophy in ISO-induced heart failure C57BL/6J mouse assessed as increase in Bcl-2 level in heart tissue at 5 to 20 mg/kg/day, po for 14 days by Western blot analysis; type: functional, organism-based; details: dose 5-20 mg/kg/day, time 14.0 day
H9c2 [4] = experiment: Cytoprotective activity against OGD-induced myocardial ischemic injury in rat H9c2 cells assessed as decrease in cell death at 5 to 50 uM preincubated for 12 hrs followed by exposure to OGD condition for 3 hrs by crystal violet staining based analysis; type: functional; details: dose 5-50 µM, time 15.0 hrs
H9c2 [5] = experiment: Inhibition of apoptosis in ISO-treated rat H9c2 cells by Annexin V-FITC/PI staining based flow cytometry; type: functional, cell-based; details: dose 5-50 µM
[6] = AUC (0 to t) in C57/6J mouse at 20 mg/kg, po measured for 24 hrs; type: ADME, organism-based; details: in vivo
Mus musculus [7] = experiment: Inhibition of cardiomyocyte hypertrophy in ISO-induced heart failure C57BL/6J mouse assessed as decrease in PI3K phosphorylation in heart tissue administered orally daily for 14 days by Western blot analysis; type: functional, organism-based; details: dose 5-20 mg/kg/day, route po, time 14.0 day
[8] = Tmax in C57/6J mouse at 20 mg/kg, po measured for 24 hrs; type: ADME, organism-based; details: in vivo
H9c2 [9] = experiment: Cytoprotective activity against OGD-induced myocardial ischemic injury in rat H9c2 cells assessed as cell viability at 50 uM preincubated for 12 hrs followed by exposure to OGD condition for 3 hrs by CCK8 assay (reference value: 49.23 to 50.05 %); type: functional; details: time 15 hrs, read-out: Activity
[10] = Toxicity in C57BL/6J mouse assessed as change in relative organ weights at 400 mg/kg, po administered as single dose measured for 7 days; type: organism-based; details: in vivo, 168 h, time 7 day
[11] = MRT (0 to t) in C57/6J mouse at 20 mg/kg, po measured for 24 hrs; type: ADME, organism-based; details: in vivo
Mus musculus [12] = experiment: Inhibition of cardiomyocyte hypertrophy in ISO-induced heart failure C57BL/6J mouse assessed as decrease in GSK-3beta phosphorylation in heart tissue administered orally daily for 14 days by Western blot analysis; type: functional, organism-based; details: dose 5-20 mg/kg/day, route po, time 14.0 day
Mus musculus [13] = experiment: Inhibition of cardiomyocyte hypertrophy in ISO-induced heart failure C57BL/6J mouse assessed as decrease in ratio of p-AKT to AKT levels in heart tissue administered orally daily for 14 days by Western blot analysis; type: functional, organism-based; details: dose 5-20 mg/kg/day, route po, time 14.0 day
Mus musculus [14] = experiment: Inhibition of cardiomyocyte hypertrophy in ISO-induced heart failure C57BL/6J mouse assessed as decrease in ratio of p-PI3K to PI3K levels in heart tissue administered orally daily for 14 days by Western blot analysis; type: functional, organism-based; details: dose 5-20 mg/kg/day, route po, time 14.0 day
Mus musculus [15] = experiment: Cardioprotective activity in ISO-induced heart failure C57BL/6J mouse assessed as ejection fraction in heart at 20 mg/kg/day, po for 14 days by echocardiography (reference value: 49.55 +/- 2.41 %); type: functional; details: time 14 day
[16] = Metabolic stability in human liver microsomes assessed as half life measured for 5 to 60 mins in presence of NADPH by LC-MS/MS analysis; type: ADME, Microsome; details: time 5-60 min
[17] = Metabolic stability in human liver microsomes assessed as intrinsic clearance measured for 5 to 60 mins in presence of NADPH by LC-MS/MS analysis; type: ADME, Microsome; details: time 5-60 min, read-out: CLH
H9c2 [18] = experiment: Cytoprotective activity against OGD-induced myocardial ischemic injury in rat H9c2 cells assessed as decrease in LDH level at 5 to 50 uM preincubated for 12 hrs followed by exposure to OGD condition for 3 hrs by UV absorption analysis; type: functional, cell-based; details: dose 5-50 µM, time 15.0 hrs
Mus musculus [19] = experiment: Inhibition of cardiac fibrosis in ISO-induced heart failure C57BL/6J mouse at 5 to 20 mg/kg/day, po for 14 days; type: functional, organism-based; details: dose 5-20 mg/kg/day, time 14.0 day
[20] = Metabolic stability in mouse liver microsomes assessed as half life measured for 5 to 60 mins in presence of NADPH by LC-MS/MS analysis; type: ADME, Microsome; details: time 5-60 min
[21] = Cmax in C57/6J mouse at 20 mg/kg, po measured for 24 hrs; type: ADME, organism-based; details: in vivo
Mus musculus [22] = experiment: Improvement in motor ability in ISO-induced heart failure C57BL/6J mouse assessed as increase in grip strength at 5 to 20 mg/kg/day, po for 14 days; type: functional, organism-based; details: dose 5-20 mg/kg/day, time 14.0 day
Mus musculus [23] = experiment: Improvement in motor ability in ISO-induced heart failure C57BL/6J mouse assessed as increase in time of remote motion with rotarod at 5 to 20 mg/kg/day, po for 14 days; type: functional, organism-based; details: dose 5-20 mg/kg/day, time 14.0 day
Mus musculus [24] = experiment: Inhibition of cardiomyocyte hypertrophy in ISO-induced heart failure C57BL/6J mouse at 5 to 20 mg/kg/day, po for 14 days by WGA staining based analysis; type: functional, organism-based; details: dose 5-20 mg/kg/day, time 14.0 day
Mus musculus [25] = experiment: Inhibition of cardiomyocyte hypertrophy in ISO-induced heart failure C57BL/6J mouse assessed as decrease in ratio of p-GSK-3beta to GSK-3beta levels in heart tissue administered orally daily for 14 days by Western blot analysis; type: functional, organism-based; details: dose 5-20 mg/kg/day, route po, time 14.0 day
Mus musculus [26] = experiment: Inhibition of cardiomyocyte hypertrophy in ISO-induced heart failure C57BL/6J mouse assessed as decrease in Bax level in heart tissue at 5 to 20 mg/kg/day, po for 14 days by Western blot analysis; type: functional, organism-based; details: dose 5-20 mg/kg/day, time 14.0 day
[27] = MRT (0 to t) in C57/6J mouse at 5 mg/kg, iv measured for 24 hrs; type: ADME, organism-based; details: in vivo
CYP3A4 = CYP3A4 (Homo sapiens, UniProt P08684); experiment: Inhibition of CYP3A4 in human liver microsomes preincubated for 10 mins followed by NADPH addition measured after 10 mins by LC/MS/MS analysis relative to control; type: ADME, Microsome; details: time 20 min
CYP3A4, sequence (P08684 whole entry): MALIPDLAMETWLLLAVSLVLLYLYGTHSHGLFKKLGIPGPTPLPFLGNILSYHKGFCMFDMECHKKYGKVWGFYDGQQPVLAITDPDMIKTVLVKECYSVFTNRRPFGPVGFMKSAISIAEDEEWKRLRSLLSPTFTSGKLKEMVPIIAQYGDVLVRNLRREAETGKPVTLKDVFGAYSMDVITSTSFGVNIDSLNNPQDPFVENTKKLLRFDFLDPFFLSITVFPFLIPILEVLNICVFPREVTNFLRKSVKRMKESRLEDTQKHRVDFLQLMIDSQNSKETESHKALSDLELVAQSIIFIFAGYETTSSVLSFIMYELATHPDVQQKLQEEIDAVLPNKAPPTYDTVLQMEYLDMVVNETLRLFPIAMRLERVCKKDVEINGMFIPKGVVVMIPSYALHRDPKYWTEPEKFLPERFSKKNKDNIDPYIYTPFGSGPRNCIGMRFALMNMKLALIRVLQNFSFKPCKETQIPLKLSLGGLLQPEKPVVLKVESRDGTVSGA

Mus musculus [28] = experiment: Inhibition of cardiomyocyte hypertrophy in ISO-induced heart failure C57BL/6J mouse assessed as decrease in AKT phosphorylation in heart tissue administered orally daily for 14 days by Western blot analysis; type: functional, organism-based; details: dose 5-20 mg/kg/day, route po, time 14.0 day
[29] = Oral bioavailability in C57/6J mouse at 20 mg/kg measured for 24 hrs; type: ADME, organism-based; details: in vivo
CYP2C19 = CYP2C19 (Homo sapiens, UniProt P33261); experiment: Inhibition of CYP2C19 in human liver microsomes preincubated for 10 mins followed by NADPH addition measured after 10 mins by LC/MS/MS analysis relative to control; type: ADME, Microsome; details: time 20 min
CYP2C19, sequence (P33261 whole entry): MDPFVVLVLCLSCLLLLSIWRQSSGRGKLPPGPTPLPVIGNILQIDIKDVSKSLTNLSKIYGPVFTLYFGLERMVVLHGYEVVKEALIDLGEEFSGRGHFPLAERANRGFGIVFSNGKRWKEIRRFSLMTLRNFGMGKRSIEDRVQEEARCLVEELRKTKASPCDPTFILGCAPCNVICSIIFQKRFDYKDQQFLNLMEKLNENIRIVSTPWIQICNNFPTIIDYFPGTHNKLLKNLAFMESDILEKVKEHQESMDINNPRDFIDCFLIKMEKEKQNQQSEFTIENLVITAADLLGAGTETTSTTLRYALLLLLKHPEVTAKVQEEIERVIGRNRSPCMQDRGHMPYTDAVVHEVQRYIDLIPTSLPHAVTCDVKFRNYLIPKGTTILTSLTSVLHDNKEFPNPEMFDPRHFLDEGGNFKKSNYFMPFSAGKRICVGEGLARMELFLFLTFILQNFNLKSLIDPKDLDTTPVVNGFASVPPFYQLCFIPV

With `OC[C@H]1O[C@@H](O[C@@H]2OC=C[C@H]3[C@H](O)[C@@H]4O[C@]4(COc4ccc(C(F)(F)F)cc4)[C@@H]23)[C@H](O)[C@@H](O)[C@@H]1O` the CLint scaled [1] was less than 38 mL/min/kg, the inhibition (H9c2 [2]) was “Dose-dependent-effect” and the inhibition (Mus musculus [3]) was “Active”. For the same compound, the Activity (H9c2 [4]) was “Active; Exhibited Superior Protective Efficacy Than Catal-Pol”, the inhibition (H9c2 [5]) was “Active; Exhibited Significantly Greater Decrease In Apoptotic Rate” and the AUC(0-t) at 24 h [6] was 1820 ng·h/mL. For the same compound, the inhibition (Mus musculus [7]) was “Dose-dependent-effect”, the Tmax [8] was 1.42 h and the viability at 50 µM (H9c2 [9]) was 72%. For the same compound, the Activity [10] was “Non-toxic”, the MRT last at 24 h [11] was 2.43 h and the inhibition (Mus musculus [12]) was “Dose-dependent-effect”. The inhibition (Mus musculus [13]) was “Dose-dependent-effect”, the inhibition (Mus musculus [14]) was “Dose-dependent-effect” and the Activity (Mus musculus [15]) was 58.46%. The half-life [16] was greater than 2.42 h, the CLint scaled [17] was less than 8.6 mL/min/kg and the Activity (H9c2 [18]) was “Active”. The inhibition (Mus musculus [19]) was “Active”, the half-life [20] was greater than 2.42 h and the Cmax [21] was 505 ng/mL. The Activity (Mus musculus [22]) was “Active”, the Activity (Mus musculus [23]) was “Active” and the inhibition (Mus musculus [24]) was “Active”. The inhibition (Mus musculus [25]) was “Dose-dependent-effect”, the inhibition (Mus musculus [26]) was “Active” and the MRT last at 24 h [27] was 0.52 h. The inhibition at 10 min (CYP3A4) was 0.4%, the inhibition (Mus musculus [28]) was “Dose-dependent-effect” and the bioavailability [29] was 41.8%. It also gave an inhibition at 10 min (CYP2C19) of 10.2%.
